melting point [°C] | SMILES
215 to 220 | Cc1ccc(-c2cccc(C3=Nc4cc(F)c(Cl)cc4NC(=O)C3)c2)cn1 [Example 23, 8-Chloro-7-fluoro-4-[3-(6-methyl-pyridin-3-yl)-phenyl]-1,3-dihydro-benzo[b][1,4]diazepin-2-one]
220 to 221 | Cc1cc2c(cc1C(F)(F)F)NC(=O)CC(c1cccc(-c3ccc(C4CC4)nc3)c1)=N2 [Example 167, 4-[3-(6-Cyclopropyl-pyridin-3-yl)-phenyl]-7-methyl-8-trifluoromethyl-1,3-dihydro-benzo[b][1,4]diazepin-2-one]
193 to 196 | COc1ccc2c(c1)NC(=O)CC(c1cccc(-c3ccncc3)c1)=N2 [Example 38, 8-Methoxy-4-(3-pyridin-4-yl-phenyl)-1,3-dihydro-benzo[b][1,4]diazepin-2-one]
206 | Cc1cc(-c2cccc(C3=Nc4ccc(-n5cccc5)cc4NC(=O)C3)c2)ccn1 [Example 108, 4-[3-(2-Methyl-pyridin-4-yl)-phenyl]-8-pyrrol-1-yl-1,3-dihydro-benzo[b][1,4]diazepin-2-one]
207 | O=C1CC(c2cccc(-c3cccnc3)c2)=Nc2ccc(OC(F)(F)F)cc2N1 [Example 185, 4-(3-Pyridin-3-yl-phenyl)-8-trifluoromethoxy-1,3-dihydro-benzo[b][1,4]diazepin-2-one]
242 to 243 | Cc1cc(-c2cccc(C3=Nc4ccc(-n5cccc5)cc4NC(=O)C3)c2)ncn1 [Example 314, 4-[3-(6-Methyl-pyrimidin-4-yl)-phenyl]-8-pyrrol-1-yl-1,3-dihydro-benzo[b][1,4]diazepin-2-one]
174 | Cc1ccc(-c2cccc(C3=Nc4cc(N(C)C)c(C(F)(F)F)cc4NC(=O)C3)c2)nn1 [Example 15, 7-Dimethylamino-4-[3-(6-methyl-pyridazin-3-yl)-phenyl]-8-trifluoromethyl-1,3-dihydro-benzo[b][1,4]diazepin-2-one]
235 to 237 | CNc1nc(C)cc(-c2cccc(C3=Nc4cc(C)c(Cl)cc4NC(=O)C3)c2)n1 [Example 319, 8-Chloro-7-methyl-4-[3-(6-methyl-2-methylamino-pyrimidin-4-yl)-phenyl]-1,3-dihydro-benzo[b][1,4]diazepin-2-one]
186 | COc1ccc(-c2cccc(C3=Nc4cc(OCC(F)(F)F)ccc4NC(=O)C3)c2)cn1 [Example 169, 4-[3-(6-Methoxy-pyridin-3-yl)-phenyl]-7-(2,2,2-trifluoro-ethoxy)-1,3-dihydro-benzo[b][1,4]diazepin-2-one]
226 to 227 | O=C1CC(c2cccc(-c3ccccn3)c2)=Nc2ccc(C(F)(F)F)cc2N1 [Example 33, 4-(3-Pyridin-2-yl-phenyl)-8-trifluoromethyl-1,3-dihydro-benzo[b][1,4]diazepin-2-one]
223 | Cc1cc(-c2cccc(C3=Nc4cc(N5CCCC5)c(C(F)(F)F)cc4NC(=O)C3)c2)ccn1 [Example 365, 4-[3-(2-Methyl-pyridin-4-yl)-phenyl]-7-pyrrolidin-1-yl-8-trifluoromethyl-1,3-dihydro-benzo[b][1,4]diazepin-2-one]
228 to 233 | Cc1cc2c(cc1Cl)NC(=O)CC(c1cccc(-c3cc(N)ncn3)c1)=N2 [Example 329, 4-[3-(6-Amino-pyrimidin-4-yl)-phenyl]-8-chloro-7-methyl-1,3-dihydro-benzo[b][1,4]diazepin-2-one]
200 | CN(C)c1cc2c(cc1C(F)(F)F)NC(=O)CC(c1cccc(-c3cncnc3)c1)=N2 [Example 85, 7-Dimethylamino-4-(3-pyrimidin-5-yl-phenyl)-8-trifluoromethyl-1,3-dihydro-benzo[b][1,4]diazepin-2-one]
199 to 200 | Cc1cc(-c2cccc(C3=Nc4ccc(Cl)cc4NC(=O)C3)c2)ncn1 [Example 312, 8-Chloro-4-[3-(6-methyl-pyrimidin-4-yl)-phenyl]-1,3-dihydro-benzo[b][1,4]diazepin-2-one]
202 | CCOc1cc2c(cc1C(F)(F)F)NC(=O)CC(c1cccc(-c3cnc(C4CC4)cc3C)c1)=N2 [Example 247, 4-[3-(6-Cyclopropyl-4-methyl-pyridin-3-yl)-phenyl]-7-ethoxy-8-trifluoromethyl-1,3-dihydro-benzo[b][1,4]diazepin-2-one]
246 | Cc1cc2c(cc1C(F)(F)F)NC(=O)CC(c1cccc(-c3cccnc3C)c1)=N2 [Example 260, 7-Methyl-4-[3-(2-methyl-pyridin-3-yl)-phenyl]-8-trifluoromethyl-1,3-dihydro-benzo[b][1,4]diazepin-2-one]
238 to 240 | O=C1CC(c2cccc(-c3cccnn3)c2)=Nc2ccc(C(F)(F)F)cc2N1 [Example 205, 4-(3-Pyridazin-3-yl-phenyl)-8-trifluoromethyl-1,3-dihydro-benzo[b][1,4]diazepin-2-one]
231 to 233 | Cc1cc2c(cc1C(F)(F)F)NC(=O)CC(c1cccc(-c3ccc(N(C)C)nc3)c1)=N2 [Example 217, 4-[3-(6-Dimethylamino-pyridin-3-yl)-phenyl]-7-methyl-8-trifluoromethyl-1,3-dihydro-benzo[b][1,4]diazepin-2-one]

melting point [°C] | SMILES
202 | CC(C)c1cc(-c2cccc(C3=Nc4cc(OCC(F)(F)F)c(C(F)(F)F)cc4NC(=O)C3)c2)ccn1 [Example 275, 4-[3-(2-Isopropyl-pyridin-4-yl)-phenyl]-7-(2,2,2-trifluoro-ethoxy)-8-trifluoromethyl-1,3-dihydro-benzo[b][1,4]diazepin-2-one]
244 | CCOc1cc2c(cc1C(F)(F)F)NC(=O)CC(c1cccc(-c3ccnc(C4CC4)c3)c1)=N2 [Example 348, 4-[3-(2-Cyclopropyl-pyridin-4-yl)-phenyl]-7-ethoxy-8-trifluoromethyl-1,3-dihydro-benzo[b][1,4]diazepin-2-one]
213 | CCc1ncccc1-c1cccc(C2=Nc3cc(C)c(C(F)(F)F)cc3NC(=O)C2)c1 [Example 234, 4-[3-(2-Ethyl-pyridin-3-yl)-phenyl]-7-methyl-8-trifluoromethyl-1,3-dihydro-benzo[b][1,4]diazepin-2-one]
224 | O=C1CC(c2cccc(-c3ccnc(CO)c3)c2)=Nc2cc(Cl)c(Cl)cc2N1 [Example 285, 7,8-Dichloro-4-[3-(2-hydroxymethyl-pyridin-4-yl)-phenyl]-1,3-dihydro-benzo[b][1,4]diazepin-2-one]
208 | CCc1cc(-c2cccc(C3=Nc4ccc(C(F)(F)F)cc4NC(=O)C3)c2)ccn1 [Example 155, 4-[3-(2-Ethyl-pyridin-4-yl)-phenyl]-8-trifluoromethyl-1,3-dihydro benzo[b][1,4]diazepin-2-one]
173 | CCOc1ccc2c(c1)N=C(c1cccc(-c3ccc(C)nc3)c1)CC(=O)N2 [Example 60, 7-Ethoxy-4-[3-(6-methyl-pyridin-3-yl)-phenyl]-1,3-dihydro-benzo[b][1,4]diazepin-2-one]
246 | O=C1CC(c2cccc(-c3cccnc3)c2)=Nc2cc(F)c(F)cc2N1 [Example 116, 7,8-Difluoro-4-(3-pyridin-3-yl-phenyl)-1,3-dihydro-benzo[b][1,4]diazepin-2-one]
241 | O=C1CC(c2cccc(-c3cnccn3)c2)=Nc2ccc(-c3ccccc3F)cc2N1 [Example 92, 8-(2-Fluoro-phenyl)-4-(3-pyrazin-2-yl-phenyl)-1,3-dihydro-benzo[b][1,4]diazepin-2-one]
204 | CN(C)c1cc2c(cc1C(F)(F)F)NC(=O)CC(c1cccc(-c3cnccn3)c1)=N2 [Example 90, 7-Dimethylamino-4-(3-pyrazin-2-yl-phenyl)-8-trifluoromethyl-1,3-dihydro-benzo[b][1,4]diazepin-2-one]
222 | Cc1nccc(-c2cccc(C3=Nc4cc(OCC(F)(F)F)c(C(F)(F)F)cc4NC(=O)C3)c2)c1C [Example 145, 4-[3-(2,3-Dimethyl-pyridin-4-yl)-phenyl]-7-(2,2,2-trifluoro-ethoxy)-8-trifluoromethyl-1,3-dihydro-benzo[b][1,4]diazepin-2-one]
226 to 228 | Cc1cc2c(cc1Cl)NC(=O)CC(c1cccc(-c3cc(N(C)C)ncn3)c1)=N2 [Example 333, 8-Chloro-4-[3-(6-dimethylamino-pyrimidin-4-yl)-phenyl]-7-methyl-1,3-dihydro-benzo[b][1,4]diazepin-2-one]
217 | Cc1cc(-c2cccc(C3=Nc4cc(F)c(F)cc4NC(=O)C3)c2)ccn1 [Example 115, 7,8-Difluoro-4-[3-(2-methyl-pyridin-4-yl)-phenyl]-1,3-dihydro-benzo[b][1,4]diazepin-2-one]
215 to 220 | Cc1nccc(-c2cccc(C3=Nc4ccc(Cl)cc4NC(=O)C3)c2)n1 [Example 305, 8-Chloro-4-[3-(2-methyl-pyrimidin-4-yl)-phenyl]-1,3-dihydro-benzo[b][1,4]diazepin-2-one]
176 to 180 | Cc1cc(C)c(-c2cccc(C3=Nc4cc(OCC(F)(F)F)c(C(F)(F)F)cc4NC(=O)C3)c2)cn1 [Example 253, 4-[3-(4,6-Dimethyl-pyridin-3-yl)-phenyl]-7-(2,2,2-trifluoro-ethoxy)-8-trifluoromethyl-1,3-dihydro-benzo[b][1,4]diazepin-2-one]
225 | COCc1cc(-c2cccc(C3=Nc4cc(C)c(C(F)(F)F)cc4NC(=O)C3)c2)ccn1 [Example 361, 4-[3-(2-Methoxymethyl-pyridin-4-yl)-phenyl]-7-methyl-8-trifluoromethyl-1,3-dihydro-benzo[b][1,4]diazepin-2-one]
223 | O=C1CC(c2cccc(-c3cnccn3)c2)=Nc2ccc(C(F)(F)F)cc2N1 [Example 89, 4-(3-Pyrazin-2-yl-phenyl)-8-trifluoromethyl-1,3-dihydro-benzo[b][1,4]diazepin-2-one]
235 | Cc1ccc(-c2cccc(C3=Nc4cc(C)c(C(F)(F)F)cc4NC(=O)C3)c2)cn1 [Example 237, 7-Methyl-4-[3-(6-methyl-pyridin-3-yl)-phenyl]-8-trifluoromethyl-1,3-dihydro-benzo[b][1,4]diazepin-2-one]

— patent publication US6949542B2, “Dihydro-benzo[b][1,4]diazepin-2-one derivatives” (Hoffman-La Roche Inc., priority 2002, dated 2005)
